# Experimental data from article PMC6934184, “Selective DNA-PKcs inhibition extends the therapeutic index of localized radiotherapy and chemotherapy” (The Journal of Clinical Investigation, 2019).
# Molecular target: T1, MARK2 (Homo sapiens, UniProt Q7KZI7)
# T1 construct: purchased Thermo Fisher Scientific (Life Technologies) SelectScreen
# Assay: SelectScreen Z'LYTE
# Type: biochemical
# Outline: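 NU5455 was profiled across the SelectScreen Broad panel of kinase activity and binding assays. Z'LYTE reactions such as CSF1R ran at apparent Km ATP, while the Adapta CAMK1 assay used ATP listed as 10. Values are given as percent.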
# T1 sequence (Q7KZI7 whole entry): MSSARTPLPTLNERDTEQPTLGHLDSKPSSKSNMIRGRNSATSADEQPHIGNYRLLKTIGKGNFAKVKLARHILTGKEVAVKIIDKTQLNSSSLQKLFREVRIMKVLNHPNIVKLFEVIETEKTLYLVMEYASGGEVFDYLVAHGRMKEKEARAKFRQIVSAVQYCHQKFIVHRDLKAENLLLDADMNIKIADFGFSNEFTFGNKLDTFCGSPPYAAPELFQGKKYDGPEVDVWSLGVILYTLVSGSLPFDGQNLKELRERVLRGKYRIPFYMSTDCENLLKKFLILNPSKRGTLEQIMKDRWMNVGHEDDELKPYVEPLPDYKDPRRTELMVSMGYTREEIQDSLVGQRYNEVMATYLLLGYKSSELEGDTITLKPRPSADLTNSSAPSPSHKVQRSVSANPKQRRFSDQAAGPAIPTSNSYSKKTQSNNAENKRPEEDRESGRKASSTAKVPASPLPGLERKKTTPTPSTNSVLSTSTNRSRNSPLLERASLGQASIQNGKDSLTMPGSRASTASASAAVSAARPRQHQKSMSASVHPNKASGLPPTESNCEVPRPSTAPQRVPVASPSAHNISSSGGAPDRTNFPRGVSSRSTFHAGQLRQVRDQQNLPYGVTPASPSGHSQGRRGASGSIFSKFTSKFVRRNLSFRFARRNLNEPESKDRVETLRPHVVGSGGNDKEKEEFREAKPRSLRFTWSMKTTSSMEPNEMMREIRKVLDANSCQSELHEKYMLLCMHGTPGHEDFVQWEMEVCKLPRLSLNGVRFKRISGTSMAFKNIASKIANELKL
smiles,measurement,value
CN(C(=O)CN1CCOCC1)c1ccc2sc3c(-c4cccc5c(=O)cc(N6CC7CCC(C6)O7)oc45)cccc3c2c1 [NU5455],inhibition at 1 µM,0.1%
